# Experiments:
# [1] = Liposome leakage of sulforhodamine B by fluorescence correlation spectroscopy, +/- Fe2+/ascorbate
# Method: The equipment set up and peak intensity analysis was conducted as described in Perevoshchikova, et al., Biochim. Biophys. Acta 1778, 2182-2190 (2008). Briefly, fluorescence excitation and detection utilized a Nd: YAG solid state laser with a 532-nm beam attached to an Olympus IMT-2 epifluorescent inverted microscope equipped with a 40×, NA 1.2 water immersion objective (Carl Zeiss, Jena, Germany). The fluorescence light passed through an appropriate dichroic beam splitter and a long-pass filter and was imaged onto a 50-μm core fiber coupled to an avalanche photodiode (SPCM-AQR-13-FC, PerkinElmer Optoelectronics, Vaudreuil, Quebec, Canada). The signal from an output was sent to a PC using a fast interface card (Flex02-01D/C, Correlator.com, Bridgewater, NJ). The data acquisition time was 30 s. The fluorescence was recorded from the confocal volume located at about 50 μm above the coverslip surface with 50 μL of the buffer solution added. Most of the data were collected under the conditions of stirring a suspension by a paddle-shaped 3-mm plastic bar rotated at 600 rpm. To calibrate the setup, the fluorescence autocorrelation function of Rhodamine 6G solution was recorded. Assuming the diffusion coefficient of the dye to be 2.5×10^−6 cm^2/s, the value of the confocal radius is circa ω=0.42 μm. The correlated fluorescence emission signals were fitted to the three-dimensional autocorrelation function as described in Hess, et al., Biochemistry 41; 697-705 (2002).
# SRB-loaded liposomes were suspended in an aqueous solution of Fe^2+ and ascorbate […], prepared from lipid mixtures containing linoleoyl stearoyl phosphatidylcholine (H-Lin-PC) as the bulk lipid (unless otherwise stated) with various contents of a series of 1-stearoyl phosphatidylcholines, including compounds of Formula (II). To measure G(τ→0) more precisely, the FCS experiments were performed under stirring conditions. […] The reduction of the G(τ→0) amplitude apparently reflected an increase in the number of fluorescent particles due to SRB release from liposomes. […]
# [2] = Incorporation of orally dosed D-DHA into retina by nanoSIMS; type: in vivo, mouse; conditions: after three days of dosing
# Method: In this example, D-DHA (20 mg; 1 mg/ul) was administered orally as ethyl ester to a wild-type mouse by gavage for three consecutive days in addition to unrestricted regular DHA-free rodent diet. Mouse retina was harvested and then fixed and embedded in resin. Retinal sections were analyzed with nanoscale secondary ion mass spectrometry (nanoSIMS) to determine the incorporation rates of D-DHA into retinal cells by measuring the relative enrichment of DHA-bound deuterium over its natural tissue abundance. The D-DHA/DHA substitution rate of natural DHA in the outer segments was calculated by the ratio of increased deuterium abundance vs. total hydrogen contribution of DHA in outer segments.
structure (smiles),measurement,setting,value
"[2H]C([2H])(/C=C\CCCCC)/C=C\C([2H])([2H])/C=C\C([2H])([2H])/C=C\CCCC(=O)O[C@H](COC(=O)CCCCCCCCCCCCCCCCC)COP(=O)([O-])OCC[N+](C)(C)C [D6-Ara-PC, 1-stearoyl-2-(7,7,10,10,13,13-D6-arachidonoyl)-sn-glycero-3-phosphatidylcholine]",relative strength of protection of H-Lin-PC bulk: % in bilayer,FIG. 6,12%
"[2H]C([2H])(/C=C\CC)/C=C\C/C=C\CCCCCCCC(=O)O[C@H](COC(=O)CCCCCCCCCCCCCCCCC)COP(=O)([O-])OCC[N+](C)(C)C [D2-Lnn-PC, 1-stearoyl-2-(14,14-D2-linolenyl)-sn-glycero-3-phosphatidylcholine]","percentage needed for protection of H-Lin-PC matrix, relative to D4-Lnn-PC",FIG. 6,about twofold as high as that of D4-Lnn-PC
"[2H]C([2H])(/C=C\CC)/C=C\C([2H])([2H])/C=C\C([2H])([2H])/C=C\C([2H])([2H])/C=C\CCCC(=O)O[C@@H](COC(=O)CCCCCCCCCCCCCCCCC)COP(=O)([O-])OCC[N+](C)(C)C [D8-EPA-PC, 1-stearoyl-2-(7,7,10,10,13,13,16,16-D8-eicosapentaenoyl)-sn-glycero-3-phosphatidylcholine]",relative strength of protection of H-Lin-PC bulk: % in bilayer,FIG. 6,10%
"[2H]C([2H])(/C=C\CCCCC)/C=C\CCCCCCCC(=O)O[C@H](COC(=O)CCCCCCCCCCCCCCCCC)COP(=O)([O-])OCC[N+](C)(C)C [D2-Lin-PC, 1-stearoyl-2-(11,11-D2-linoleyl)-sn-glycero-3-phosphatidylcholine]",relative strength of protection of H-Lin-PC bulk: % in bilayer,FIG. 6,25%
same,% of deuterated lipid giving very low level of ΔA234 and very low difference in α +/- Fe2+/ascorbate,"t=10 min, in H-Lin-PC, FIG. 3",≥ 20%
same,effect of incubation with Fe/ascorbate on G(τ→0) amplitude of SRB,"[1]; 10% D2-Lin-PC in H-Lin-PC, 0, 10, 20 min, FIG. 1A",led to a decrease in the G(τ→0) amplitude
same,effect of incubation with Fe2+/ascorbate on G(τ→0) amplitude of SRB,"[1]; 25% D2-Lin-PC in H-Lin-PC, FIG. 1B",did not reduce the amplitude of G(τ→0) or reduced it to a very low extent
same,difference between extent of liposome leakage α with and without Fe2+/ascorbate,"[1]; 100% of the deuterated lipid, FIG. 2A",very low
"[2H]C([2H])(/C=C\CC)/C=C\C([2H])([2H])/C=C\C([2H])([2H])/C=C\C([2H])([2H])/C=C\C([2H])([2H])/C=C\CCC(=O)OCC [D-DHA, 6,6,9,9,12,12,15,15,18,18-D10-docosahexaenoic acid ethyl ester]",level reached in retinal tissues after oral dosing,[2],above 1%
"[2H]C([2H])(/C=C\CC)/C=C\C([2H])([2H])/C=C\C([2H])([2H])/C=C\C([2H])([2H])/C=C\C([2H])([2H])/C=C\CCC(=O)O[C@H](COC(=O)CCCCCCCCCCCCCCCCC)COP(=O)([O-])OCC[N+](C)(C)C [D10-DHA-PC, 1-stearoyl-2-(6,6,9,9,12,12,15,15,18,18-D10-docosahexaenoyl)-sn-glycero-3-phosphatidylcholine]","protection, fold stronger than for D6-Ara","diene conjugates assay, H-Lin-PC matrix",10 fold
same,"level suppressing lipid autooxidation, diene conjugates assay","in the H-Lin-PC matrix, FIG. 6",≤ 1%
same,protection from oxidative stress compared to other deuterated lipids,"undeuterated H-Lin-PC matrix, FIG. 6",substantially enhanced protection from oxidative stress
"[2H]C([2H])(/C=C\CC)/C=C\C([2H])([2H])/C=C\CCCCCCCC(=O)O[C@H](COC(=O)CCCCCCCCCCCCCCCCC)COP(=O)([O-])OCC[N+](C)(C)C [D4-Lnn-PC, 1-stearoyl-2-(11,11,14,14-D4-linolenyl)-sn-glycero-3-phosphatidylcholine]",relative strength of protection of H-Lin-PC bulk: % in bilayer,FIG. 6,17%

# — patent publication US20250215026A1, “Deuterated Compounds, Compositions and Uses” (BioJive LLC, priority 2018, published 2025)
